Values of other authors, collected in patent US20200367542A1, “AROMA COMPOSITION” (SYMRISE AG, priority 2017, published 2020).

What was measured:
[1] = J. Chem. Senses 1979, 4(1), 35-47
[2] = purity>90%, in soft drinks

| SMILES | Taste described in the publication [1] | Concentration to achieve a sweetness corresponding to a concentration of sucrose of 10% by weight [2] |
| --- | --- | --- |
| COc1ccc(CCC(=O)c2ccccc2O)cc1O [dihydrochalcone (2)] | intensively sweet tasting |  |
| COc1ccc(CCC(=O)c2c(O)cccc2O)cc1O [dihydrochalcone (3)] | tasteless |  |
| C=C1C[C@@]23CC[C@H]4[C@@](C)(CCC[C@@]4(C)C(=O)O[C@@H]4O[C@H](CO)[C@@H](O)[C@H](O)[C@H]4O)[C@@H]2CC[C@]1(O[C@@H]1O[C@H](CO)[C@@H](O)[C@H](O[C@@H]2O[C@H](CO)[C@@H](O)[C@H](O)[C@H]2O)[C@H]1O[C@@H]1O[C@H](CO)[C@@H](O)[C@H](O)[C@H]1O)C3 [rebaudioside A] |  | 400-600 ppm |
